Laboratory results published in US8623327B2, “Imaging agents for use in magnetic resonance blood flow/perfusion imaging” (Beth Israel Deaconess Medical Center, Inc., priority 2006, dated 2014).
Like-named read-outs stand apart in the source and are kept apart here. Blank lines part the entries; values can stand above or below the molecule they belong to.

Assays:
[1] = cited from earlier work
[2] = NMR relaxation time (T1, T2) measurement, saturation recovery; format: physicochemical; settings: for median value of T1: 9.6 T
[3] = test system: alcohol dehydrogenase enzyme; settings: cited from earlier work
[4] = cited from earlier work; remark: listed apart in the source
[5] = single saturated recovery experiment (FIGS. 2A and 2B)

SMILES: [3He] [3He]
- solubility in blood [1]: not soluble in blood

- median value of T1 ([2]; at 400 Mhz): 26 ± 5 s
SMILES: [2H][13C]([2H])([2H])C(O)([13C]([2H])([2H])[2H])[13C]([2H])([2H])[2H]

SMILES: CC(C)(C)O [t-butanol, tert-butyl alcohol]
- processing by alcohol dehydrogenase enzyme [3]: not processed

SMILES: [Xe] [Xenon]
- relaxation time ([4]; in blood): less than 10 seconds
- relaxation time ([4]; in tissue): ≥ 2 s

- median value of T1 ([2]; at 400 Mhz): 64 ± 20 s
- T1 ([2]; at 400 Mhz, measured in water with oxygen present): > 20 s
- T1 [2, 5]: 46±4
- T2 [2, 5]: 0.6±0.02
SMILES: [2H]C([2H])([2H])[13C](O)(C([2H])([2H])[2H])C([2H])([2H])[2H]
